The values that follow come from US5430062A, “Stilbene derivatives as anticancer agents” (priority 1993, dated 1995).

Where two headings read alike, the source gives them in different places.

The subject of series [1] is tubulin. Description: Inhibition of tubulin polymerization (turbidimetry). It counts as biochemical, bovine.
The test system of series [2] is MCF-7 breast carcinoma. Description: MTT cytotoxicity assay, MCF-7. Conditions: for IC50: Homo sapiens, MCF7, […]. Background: Tetrazolium assays rely on reduction of a dye to a coloured formazan, in cell work by metabolically active cells.
The test system of series [3] is HT-29 colon adenocarcinoma. The experiment in a line: MTT cytotoxicity assay, HT-29. Particulars: for IC50: Homo sapiens, HT-29, […].
Series [4] concerns SKMEL-5 melanoma. Description: MTT cytotoxicity assay, SKMEL-5. Conditions: for IC50: Homo sapiens, SK-MEL-5, […], read-out: Cytotoxicity ED50, SKMEL-5.
For series [5], the system named is A-549 lung carcinoma. Description: MTT cytotoxicity assay, A-549. Conditions: for IC50: Homo sapiens, A549, […].
Series [6] deals with MLM melanoma. Description: MTT cytotoxicity assay, MLM.
Where [7] appears, read: second series (Tables V-VII, IX), read-out: Inhibition of Tubulin Polymerization IC50 (±S.D.).
[8] abbreviates: read-out: Cytotoxicity ED50, MCF-7.
[9] abbreviates: read-out: Cytotoxicity ED50, HT-29.
Where [10] appears, read: read-out: Cytotoxicity ED50, A-549.
Setting [11] is: read-out: Cytotoxicity ED50, MLM.

Consider `CCCOc1ccc(/C=C\c2cc(OC)c(OC)c(OC)c2)cc1` [compound 15b, (Z)-1-(4-n-Propoxyphenyl)-2-(3,4,5-trimethoxyphenyl)-thene], for which the IC50 worked out at 6 µM in series [1] (setting [7]); 0.66 µM in series [2] (setting [8]); 0.028 µM in series [3] (setting [9]); 0.014 µM in series [4]; 0.039 µM in series [5] (setting [10]); 0.065 µM in series [6] (setting [11]).
For `CCc1ccc(CCc2cc(OC)c(OC)c(OC)c2)cc1` [17e, 1-(4-Ethylphenyl)-2-(3,4,5-trimethoxyphenyl)ethane], the IC50 worked out at 18 µM in series [1] (setting [7]); 0.16 µM in series [2] (setting [8]); 0.016 µM in series [3] (setting [9]); 0.047 µM in series [4]; 0.088 µM in series [5] (setting [10]); 2.7 µM in series [6] (setting [11]).
With `COc1cc(CCc2cc(OC)c(OC)c(OC)c2)cc(OC)c1` [compound 8s], in series [1], the “inhibition of tubulin polymerization (in words)” value (shortened to “inhibition … (in words)”) is reported as “lower activity”. The IC50 in series [2] (setting [8]), in series [3] (setting [9]), in series [4], in series [5] (setting [10]) and in series [6] (setting [11]) was > 25 µM in each case.
For the compound `COc1ccc2c(c1)CN1CCc3c(cc(OC)c(OC)c3OC)C1C2` (centres unmarked) [compound 48, 5,8,13,13a-Tetrahedro-2,3,4,10-tetramethoxy-6H-dibenzo-(a,g)quinolizine], the IC50 in series [1] (setting [7]) was > 40 µM; in series [2] (setting [8]), > 25 µM; in series [3] (setting [9]) it was > 25 µM; in series [4] it was > 25 µM; in series [5] (setting [10]) it was > 25 µM; in series [6] (setting [11]) it was > 25 µM.
As to `COc1ccc(/C=C(/C(=O)O)c2cc(OC)c(OC)c(OC)c2)cc1` [compound 23a, (E)-3-(4-Methoxyphenyl)-2-(3,4,5-trimethoxyphenyl)-prop-2-enoic acid], the IC50 is > 40 µM in series [1] (setting [7]); 12.8 µM in series [2] (setting [8]); 8.4 µM in series [3] (setting [9]); 9.1 µM in series [4]; 13.9 µM in series [5] (setting [10]); > 25 µM in series [6] (setting [11]).
As for `COc1cc(/C=C\c2ccc(SC)cc2)cc(OC)c1OC` [compound 15c, (Z)-1-(4-Methylthiophenyl)-2-(3,4,5-trimethoxyphenyl)ethene], the IC50 in series [1] (setting [7]) was 6.2 µM; in series [2] (setting [8]) it was 0.0054 µM; in series [3] (setting [9]) it was 1.8e-05 µM; in series [4], 4e-06 µM; in series [5] (setting [10]), 0.00019 µM; in series [6] (setting [11]), 0.0033 µM. The “cytotoxicity relative to 5a (in words)” value is “about one order of magnitude less cytotoxic than 5a” in series [2] (MCF cell culture), “about one order of magnitude more potent” in series [3] (HT-29 cells) and “two orders of magnitude more potent” in series [4] (SKMEL-5 cells). In addition, the “cytotoxicity relative to parent (in words)” value in series [5] (A-549) and in series [6] (MLM) was “as cytotoxic as the parent compound” in each case.
Regarding `COc1ccc(/C=C\c2cc(OC)c(O[Si](C)(C)C(C)(C)C)c(OC)c2)cc1` [15k, (Z)-1-[4-{(t-Butyldimethylsilyl)-oxy}-3,5-(dimethoxy)-phenyl]-2-(4-methoxyphenyl)ethene], the IC50 is > 40 µM in series [1] (setting [7]); > 25 µM in series [2] (setting [8]); 9 µM in series [3] (setting [9]); > 25 µM in series [4]; > 25 µM in series [5] (setting [10]); > 25 µM in series [6] (setting [11]).
Turning to `COc1ccc2ccc3cc(OC)c(OC)c(OC)c3c2c1` [32b, 2,3,4,6-Tetramethoxyphenanthrene], the IC50 in series [1] (setting [7]) is > 40 µM; in series [2] (setting [8]), > 25 µM; in series [3] (setting [9]) it was 1.1 µM; in series [4], 12.5 µM; in series [5] (setting [10]), > 25 µM; in series [6] (setting [11]), > 25 µM.
As for `COc1cccc(/C=C(/C(=O)O)c2cc(OC)c(OC)c(OC)c2)c1` [compound 23b, (E)-3-(3-Methoxyphenyl)-2-(3,4,5-trimethoxyphenyl)-prop-2-enoic acid], the IC50 in series [1] (setting [7]) is > 40 µM; in series [2] (setting [8]), > 25 µM; in series [3] (setting [9]) it was 0.12 µM; in series [4], 0.05 µM; in series [5] (setting [10]) it was 0.025 µM; in series [6] (setting [11]), > 25 µM.
As for `COc1ccc(C2Cc3cc(OC)c(OC)c(OC)c3C2=O)cc1` (centres unmarked) [compound 34, 2-(4-Methoxyphenyl)-4,5,6-trimethoxyindan-3-one], the IC50 in series [1] (setting [7]) was > 40 µM; in series [2] (setting [8]), > 25 µM; in series [3] (setting [9]), > 25 µM; in series [4] it was > 25 µM; in series [5] (setting [10]), > 25 µM; in series [6] (setting [11]) it was > 25 µM.
With `COc1ccc(/C=C\c2cc(OC)c(OC(C)=O)c(OC)c2)cc1` [15l, (Z)-1-(4-Acetoxy-3,5-dimethoxyphenyl)-2-(4-methoxyphenyl)ethene], the IC50 in series [1] (setting [7]) was 24 µM; in series [2] (setting [8]), > 25 µM; in series [3] (setting [9]), 8.7 µM; in series [4], 0.6 µM; in series [5] (setting [10]) it was 21.5 µM; in series [6] (setting [11]), > 25 µM.
Take `CCOc1ccc(/C=C\c2cc(OC)c(OC)c(OC)c2)cc1` [compound 15a, (Z)-1-(4-Ethoxyphenyl)-2-(3,4,5-trimethoxyphenyl)ethene]: the IC50 worked out at 2.7 µM in series [1] (setting [7]); 0.096 µM in series [2] (setting [8]); 0.0018 µM in series [3] (setting [9]); 0.0025 µM in series [4]; 0.0016 µM in series [5] (setting [10]); 0.029 µM in series [6] (setting [11]).
As for `COc1ccc(NC(=O)c2cc(OC)cc(OC)c2)cc1` [11d], the “inhibition … (in words)” value in series [1] was “lower inhibitory activity”. Moreover, the IC50 in series [2] (setting [8]) is 5.47 µM; in series [3] (setting [9]), 14.5 µM; in series [4], 11.9 µM; in series [5] (setting [10]) it was 9.02 µM; in series [6] (setting [11]), > 25 µM.
`COc1ccc(CC2NCCc3c2cc(OC)c(OC)c3OC)cc1` (centres unmarked) [compound 38, 1-(4'-Methoxybenzyl)-5,6,7-trimethoxy-1,2,3,4-tetrahydroisoquinoline]: the IC50 in series [1] (setting [7]) is > 40 µM; in series [2] (setting [8]) it was > 25 µM; in series [3] (setting [9]), 20.2 µM; in series [4], > 25 µM; in series [5] (setting [10]), 19.3 µM; in series [6] (setting [11]), > 25 µM.
Consider `COc1cc2ccc3c(OC)cccc3c2c(OC)c1OC` [32d, 2,3,4,8-Tetramethoxyphenanthrene], for which the IC50 was > 40 µM in series [1] (setting [7]); 14.6 µM in series [2] (setting [8]); 9.3 µM in series [3] (setting [9]); 12 µM in series [4]; > 25 µM in series [5] (setting [10]); > 25 µM in series [6] (setting [11]).
For `COc1ccc(C2Cc3cc(OC)c(OC)c(OC)c3C2)cc1` (centres unmarked) [compound 35, 2-(4-Methoxyphenyl)-4,5,6-trimethoxyindane], the IC50 in series [1] (setting [7]) is > 40 µM; in series [2] (setting [8]) it was > 25 µM; in series [3] (setting [9]) it was 12.8 µM; in series [4] it was 19.5 µM; in series [5] (setting [10]), > 25 µM; in series [6] (setting [11]), > 25 µM.
On to `COc1ccc(CC2c3cc(OC)c(OC)c(OC)c3CCN2C)cc1` (centres unmarked) [compound 41, 1-(4'-Methoxybenzyl)-5,6,7-trimethoxy-2-methyl-1,2,3,4-tetrahydroisoquinoline], for which the IC50 was > 40 µM in series [1] (setting [7]); 22.7 µM in series [2] (setting [8]); 9.7 µM in series [3] (setting [9]); 8.8 µM in series [4]; 11.4 µM in series [5] (setting [10]); > 25 µM in series [6] (setting [11]).
Take `COc1ccc(/C=C/c2cc(OC)c(OC)c(OC)c2)cc1` [compound 6a, (E)-1-(4-Methoxyphenyl)-2-(3,4,5-trimethoxyphenyl)ethene]: the IC50 in series [1] (first series (Table VIII and text), 37° C., 20 min, read-out: Tubulin polymerization IC50 (±S.D.)) is > 50 µM; in series [2] (read-out: Cytotoxicity ED50, MCF-7, MCF-7, MTT, six days), 1.05 µM; in series [3] (read-out: Cytotoxicity ED50, HT-29, HT-29, MTT, six days), 1.82 µM; in series [4] it was 0.81 µM; in series [5] (read-out: Cytotoxicity ED50, A-549, A-549, MTT, six days), 1.18 µM; in series [6] (read-out: Cytotoxicity ED50, MLM, MLM, MTT, six days) it was 2.07 µM.
In the case of `COc1ccc(C(Cc2cc(OC)c(OC)c(OC)c2)C(=O)O)cc1` (centres unmarked) [compound 33, 2-(4-Methoxyphenyl)-3-(3,4,5-trimethoxyphenyl)propionic acid], the IC50 is > 40 µM in series [1] (setting [7]); > 25 µM in series [2] (setting [8]); 9.4 µM in series [3] (setting [9]); 7.4 µM in series [4]; 14.3 µM in series [5] (setting [10]); > 25 µM in series [6] (setting [11]).
Consider `COc1ccc(/C=C\c2ccc(OC)c(OC)c2OC)cc1` [5d, (Z)-1-(4-Methoxyphenyl)-2-(2,3,4-trimethoxy-phenyl)ethene], for which, in series [1], the “inhibition of tubulin polymerization (class)” value is “inactive”. For the same compound, the IC50 in series [2] (setting [8]) worked out at 0.23 µM; in series [3] (setting [9]), 1 µM; in series [4] it was 1.1 µM; in series [5] (setting [10]) it was 0.97 µM; in series [6] (setting [11]), 10.9 µM.
Regarding `COc1cc(CCc2ccc(N)cc2)cc(OC)c1OC` [compound 8z, 1-(4-Aminophenyl)-2-(3,4,5-trimethoxyphenyl)ethane], the “inhibition … (in words)” value in series [1] is “lower activity”. The IC50 in series [2] (setting [8]) is 11.9 µM; in series [3] (setting [9]) it was 24.6 µM; in series [4] it was 12.7 µM; in series [5] (setting [10]), 12.2 µM; in series [6] (setting [11]), > 25 µM.
With `COc1ccc(Cc2cc(OC)c(OC)c(OC)c2)cc1` [compound 29, 4-Methoxyphenyl-(3,4,5-trimethoxyphenyl)methane], the IC50 is 15 µM in series [1] (setting [7]); 0.019 µM in series [2] (setting [8]); 0.013 µM in series [3] (setting [9]); 0.012 µM in series [4]; 0.15 µM in series [5] (setting [10]); 0.13 µM in series [6] (setting [11]).
